Key:
ALX/FPR2 [1] = biological target: T1, ALX/FPR2 (Homo sapiens, UniProt P25090); assay: intracellular Ca2+ flux (Fluo-4) in stably double transfected FPR2+/Gαq+ HEK-293 cells; wild-type HEK-293 cells as negative control; partial agonist; format: cell-based
T1 sequence (P25090 1-351): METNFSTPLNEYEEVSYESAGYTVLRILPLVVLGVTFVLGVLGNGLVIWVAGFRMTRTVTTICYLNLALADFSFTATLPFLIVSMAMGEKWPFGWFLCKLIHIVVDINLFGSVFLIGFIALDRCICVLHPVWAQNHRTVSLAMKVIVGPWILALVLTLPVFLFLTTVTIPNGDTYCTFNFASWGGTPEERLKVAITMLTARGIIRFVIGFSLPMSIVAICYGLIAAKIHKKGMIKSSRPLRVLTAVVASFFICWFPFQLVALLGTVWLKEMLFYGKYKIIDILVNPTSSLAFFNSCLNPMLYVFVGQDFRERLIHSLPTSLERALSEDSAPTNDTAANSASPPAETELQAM

ALX/FPR2 [2] = biological target: T1, ALX/FPR2; assay: intracellular Ca2+ flux (Fluo-4) in stably double transfected FPR2+/Gαq+ HEK-293 cells; wild-type HEK-293 cells as negative control; full endogenous agonist; format: cell-based

CCCCC[C@@H](O)c1nc(/C=C/[C@@H](O)[C@@H](O)CCCC(=O)OC)cc2ccccc12 [(1R)-8]
intracellular Ca2+ flux (Fluo-4) in stably double transfected FPR2+/Gαq+ HEK-293 (ALX/FPR2 [1]): 100 nM

CCCCC[C@H](O)/C=C/C=C\C=C\C=C\[C@@H](O)[C@@H](O)CCCC(=O)O [compound 1, LXA4]
intracellular Ca2+ flux (Fluo-4) in stably double transfected FPR2+/Gαq+ HEK-293 (ALX/FPR2 [2]): 10 nM

Reference: article PMC12510138, “Asymmetric Synthesis and Biological Evaluation of 1,3‐ and 1,4‐Disubstituted Isoquinoline‐Containing Lipoxin A4 Analogues” (Chemistry (Weinheim an Der Bergstrasse, Germany), 2025)
